Experimental data: patent US20240000979A1, “METHODS AND COMPOSITIONS FOR SYNERGISTIC UPTAKE AND RETENTION OF SMALL MOLECULE LIGANDS” (CORNELL UNIVERSITY, priority 2020, published 2024)

Columns and labels:
LNCaP tumors [1] = experiment: Tumor harvest at necropsy and direct scintillation counting of tumor radioactivity; format: in vivo, mice; details: Day 3 (72 hours) tumor harvest
Excerpt: The dotted line represents the summation of the counts in the 617-Lu^177 plus the J591-Lu^177 tumors. […] To confirm the accuracy of this experiment which was based on […] imaging, determinations were done by tumor harvest at necropsy followed by direct counting of the radioactivity within the previously imaged tumors and calculating counts per mg of tumor.
At the Day 3 tumor harvest, the mean counts per mg tumor in each of the groups is shown in the table below (and FIG. 2) further confirming the imaging results.
In this animal study, which is a continuation of the imaging study described in Example 1, when the imaging was completed at 72 hours, the animals were necropsied, the tumors harvested, weighed and counted in a scintillation counter to derive the amount of radioactivity per mg (cpm/mg) of tumor. The tumors treated with J591-Lu^177 had 2.2-fold the counts of those tumors that had gotten PSMA-617-Lu^177 alone (FIG. 2). The tumors treated with the combination had counts 48% greater than the sum of each of its individual components, meeting the definition of synergy (FIG. 2). The physical counting of the tumor radioactivity confirmed the results obtained by imaging.

LNCaP tumors [2] = experiment: SPECT/CT imaging of radioactivity within tumors after injection; format: in vivo, mice; details: for activity concentration in tumor (imaging): mean of group, LNCaP tumors in mice
Method: In this animal study, three groups of mice were implanted with LNCaP tumors (in Matrigel) with 6-8 tumors per group. After the tumors were established, one group was injected with J591-Lu^177, a 2nd group with PSMA-617-Lu^177 and a 3rd group got both PSMA617-Lu^177 and J591-Lu^177.
Radiolabeling both PSMA-617 and J591 allowed both to be tracked individually as well as their total when combined. All mice were imaged in a Siemens Inveon dedicated animal multimodality SPECT/CT. Coaxial CT images were acquired for anatomical and attenuation information prior to each SPECT acquisition to measure the radioactivity within the tumors at the 1, 4, 24 and 72 hour time points after injection. SPECT images were reconstructed using the Siemens OSEM algorithm with corrections for scatter, attenuation, decay, and ^177Lu emission spectrum. The mean number of counts within the tumors in each group and time point was calculated and plotted. THe imaging data measured an activity concentration in Bq/mL of tumor: […]

activity concentration in tumor (imaging) (LNCaP tumors [2]; 1 hr after injection): 29.55 Bq/mL
activity concentration in tumor (imaging) (LNCaP tumors [2]; 4 hr after injection): 30.62 Bq/mL
activity concentration in tumor (imaging) (LNCaP tumors [2]; 24 hr after injection): 27.1 Bq/mL
activity concentration in tumor (imaging) (LNCaP tumors [2]; 72 hr after injection): 12.48 Bq/mL
SMILES: O=C(O)CC[C@H](NC(=O)N[C@@H](CCCCNC(=O)[C@H](Cc1ccc2ccccc2c1)NC(=O)[C@H]1CC[C@H](CNC(=O)CN2CCN(CC(=O)O)CCN(CC(=O)O)CCN(CC(=O)O)CC2)CC1)C(=O)O)C(=O)O [PSMA-617-Lu^177]
Mean cpm/mg tumor (LNCaP tumors [1]): 7.536 cpm/mg
course of tumor counts over time (imaging, in words) (LNCaP tumors [2]; 1 to 72 hour, LNCaP tumors): high uptake at 1 hour that then diminished over time
